Data set [1] relates to lipid peroxidation in brain homogenate. Put plainly: Test for evaluating tissue distribution: ex vivo inhibition of lipid peroxidation, brain. The following applies: SD male rats, oral 30 mg/kg, one hour after administration, fasting. It is filed as in vivo, rat. How it is done:
(§1) (Test for Evaluating Tissue Distribution)
(§2) The tissue distribution properties of the compound of the present invention were evaluated by measuring the ex vivo inhibition of lipid peroxidation.
(§3) The compound of the present invention was dissolved in DMSO (final concentration: 20%), and then dissolved or suspended in a 0.1N hydrochloric acid physiological saline solution or a 1% polyethylene hardened castor oil (NIKOL HCO-60, manufactured by Nikko Chemicals Co., Ltd.)
This solution was administered orally, at a dose of 30 mg/kg, to either a group of three SD male rats (Japan SLC, 6 weeks old) that had been feed-deprived for 24 hours, or a group of three SD male rats (Japan SLC, 6 weeks old) that had not been feed-deprived. […] Using the method disclosed above in the section relating to the “test for evaluating in vitro inhibition of lipid peroxidation”, the brains, and the retinas separated from the eyeballs were homogenized, and the quantity of lipid peroxide within each tissue homogenate was then measured.
(§4) The inhibition rate of the compound of the present invention within each of the tissues was determined from the quantities of lipid peroxide generated in a control group (20% DMSO-0.1N hydrochloric acid physiological saline solution/1% polyethylene hardened castor oil) and in the group administered with the compound of the present invention.

The subject of data set [2] is lipid peroxidation in retina homogenate. Put plainly: Test for evaluating tissue distribution: ex vivo inhibition of lipid peroxidation, retina. It is filed as in vivo, rat. The note with it: SD male rats, oral administration, one hour after administration, with feeding. How it is done:
as §1, §2, §3
This solution was administered orally, at a dose of 30 mg/kg, to either a group of three SD male rats (Japan SLC, 6 weeks old) that had been feed-deprived for 24 hours, or a group of three SD male rats (Japan SLC, 6 weeks old) that had not been feed-deprived. One hour after administration and following anesthetization, the brains and eyeballs were removed. Using the method disclosed above in the section relating to the “test for evaluating in vitro inhibition of lipid peroxidation”, the brains, and the retinas separated from the eyeballs were homogenized, and the quantity of lipid peroxide within each tissue homogenate was then measured.
as §4

The subject of data set [3] is lipid peroxidation in pig retina homogenate. Briefly: Test for evaluating in vitro inhibition of lipid peroxidation (thiobarbituric acid method). The following applies: 500 μM cysteine and 5 μM FeSO4, 30 minutes at 37° C., malondialdehyde, read-out: in vitro inhibition of lipid peroxidation (50% inhibition concentration IC50). The class given is biochemical. The method, then:
(Test for Evaluating in vitro Inhibition of Lipid Peroxidation)
Evaluation of the in vitro inhibition of lipid peroxidation of the compound of the present invention was conducted in accordance with the method disclosed by Malvy et al. (Malvy, C., et al., Biochemical and Biophysical Research Communications, 1980, vol. 95, pp. 734 to 737).
As the organ, retinas that had been separated from pig eyeballs and subsequently stored at −80° C. were used. At the time of use, a 5-fold excess of a phosphate-buffered physiological saline solution (pH 7.4) was added, and the mixture was homogenized using a microhomogenizer (PHYSCOTRON, NITI-ON).
To this pig retina homogenate were added 0.15M KCl, the compound of the present invention, 500 μM cysteine and 5 μM FeSO4, and the mixture was then incubated for 30 minutes at 37° C.
The malondialdehyde generated upon decomposition of the lipid peroxide was measured using the thiobarbituric acid method. Based on the measured values, the 50% inhibition concentration (hereafter also referred to as “IC50”) of the compound of the present invention was determined.

Data set [4] in a line: Test for evaluating oral absorption: serum concentration by HPLC. It is filed as in vivo, rat. The following applies: SD male rats, oral 30 mg/kg, one hour after administration. How it is done:
(Test for Evaluating Oral Absorption)
The absorption of the compound of the present invention upon oral administration was evaluated in rats.
The compound of the present invention was dissolved in DMSO (final concentration: 20%), and then dissolved or suspended in a 0.1N hydrochloric acid physiological saline solution or a 1% polyethylene hardened castor oil (NIKOL HCO-60, manufactured by Nikko Chemicals Co., Ltd.).
This solution was administered orally, at a dose of 30 mg/kg, to a group of three SD male rats (Japan SLC, 6 weeks old). One hour after administration and following anesthetization, blood was collected from the abdominal vena cava in a plastic blood collection tube containing a serum separating agent. The blood sample was left to stand for approximately one hour, and following clotting, the serum was obtained by conducting a centrifugal separation at 3,000 rpm for a period of 10 minutes. […] The quantity of the compound of the present invention that existed within this filtered solution was measured by high-performance liquid chromatography (HPLC), under the conditions shown below. […]
The filtered solution for HPLC described in the previous paragraph was measured using the following representative conditions. […]

This note sets out measurements from patent US20090275753A1, “ORTHO-SUBSTITUTED ANILINE DERIVATIVE AND ANTIOXIDANT DRUG” (NIPPON SODA CO., LTD., priority 2005, published 2009).

For the molecule `Cc1c(C)c2c(c(CCc3ccccc3)c1N)CC(C)(C)O2` [Compound 83, 2,2,6,7-tetramethyl-4-phenylethyl-5-aminodihydrobenzofuran], in data set [1], the “ex vivo inhibition of lipid peroxidation inhibition rate (%) Brain” value was 96 (fasting) %. In addition, in data set [2], the “ex vivo inhibition of lipid peroxidation 50% inhibition quantity (ID50) Retina” value was 67 (with feeding) mg/kg. Besides, the IC50 in data set [3] is 260 nM.
As for `Cc1c(C)c2c(c(CN)c1N)CC(C)(C)O2` [Compound R-1, reference compound], the “ex vivo inhibition of lipid peroxidation 50% inhibition quantity (ID50) Retina” value in data set [2] is 72 (with feeding) mg/kg. Further, in data set [3], the IC50 stood at 300 nM. The serum concentration result in data set [4] is recorded as “Below detection limit”.
On to `Cc1c(C)c2c(c(CNc3ccc(-c4ccn[nH]4)cc3)c1N)CC(C)(C)O2` [Compound 29, 5-(4-(5-amino-2,2,6,7-tetramethyldihydrobenzofuran-4-ylmethylamino)phenyl)pyrazole], for which, in data set [2], the “ex vivo inhibition of lipid peroxidation 50% inhibition quantity (ID50) Retina” value is listed as 60 (with feeding) mg/kg. In data set [4] (rat, serum), this molecule registered a concentration at 1 h of 2400 nM.
